Assay results taken from ChEMBL document CHEMBL1201862, “PubChem BioAssay data set” (2004).
Values joined by “and” are separate entries in the source; they are usually repeats but may differ in a detail not shown here. Identical values can stand only once.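 Each compound was tested at five concentrations against cells in 96-well plates for 48 hours. Here, GI50 denotes the concentration required for 50% inhibition of growth.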 Active and inactive are the calls of the source. Rule as the data show it: active = GI50 up to about 1.1 µM and inactive = higher.

Legend:
Assay in all cases: inhibition of tumour cell growth, NCI panel, 48 h
[1] = tested on: K562
[2] = tested on: SN12C
[3] = tested on: HOP-62
[4] = tested on: SK-OV-3
[5] = tested on: MDA-N
[6] = tested on: MOLT-4
[7] = tested on: HCC 2998
[8] = tested on: OVCAR-8
[9] = tested on: SNB-75
[10] = tested on: PC-3
[11] = tested on: RPMI-8226
[12] = tested on: NCI/ADR-RES
[13] = tested on: SF-268
[14] = tested on: MDA-MB-231
[15] = tested on: UACC-257
[16] = tested on: CCRF-CEM
[17] = tested on: LOX IMVI
[18] = tested on: KM12
[19] = tested on: A498

SMILES	GI50 [1]	GI50 [2]	GI50 [3]	GI50 [4]	GI50 [5]	GI50 [6]	GI50 [7]	GI50 [8]	GI50 [9]	GI50 [10]	GI50 [11]	GI50 [12]	GI50 [13]	GI50 [14]	GI50 [15]	GI50 [16]	GI50 [17]	GI50 [18]	GI50 [19]
C=C1C[C@]23CC[C@@H]4C(CO)(CO)CC(=O)C[C@]4(C)[C@@H]2CC[C@H]1C3	> 100 µM (inactive)	> 100 µM (inactive)	> 100 µM (inactive)	> 100 µM (inactive)	> 100 µM (inactive)	> 100 µM (inactive)	> 100 µM (inactive)	> 100 µM (inactive)	> 100 µM (inactive)	40.5 µM (inactive)	> 100 µM (inactive)	> 100 µM (inactive)	> 100 µM (inactive)	> 100 µM (inactive)	> 100 µM (inactive)	> 100 µM (inactive)	> 100 µM (inactive)		
O=C1N(C2CCCCC2)C(=O)N1C1CCCCC1	0.0875 µM (active)	0.272 µM (active)	0.425 µM (active)	5.15 µM (inactive)	3.97 µM (inactive)	0.0132 µM (active)	1.16 µM (inactive)	0.0929 µM (active)	0.142 µM (active)	0.233 µM (active)		0.133 µM (active)	0.75 µM (active)	1.33 µM (inactive)	0.679 µM (active)	0.04 µM (active)	0.209 µM (active)	0.285 µM (active)	0.16 µM (active)
C=C(C)c1cc(C(C)(C)C)cc(C(=C)C)c1S(C)(=O)=O	> 100 µM (inactive)	> 100 µM (inactive)	> 100 µM (inactive)	> 100 µM (inactive)	> 100 µM (inactive)	> 100 µM (inactive)	> 100 µM (inactive)	> 100 µM (inactive)	> 100 µM (inactive)	> 100 µM (inactive)	> 100 µM (inactive)	> 100 µM (inactive)	> 100 µM (inactive)	3.91 µM (inactive)		> 100 µM (inactive)	> 100 µM (inactive)	> 100 µM (inactive)	> 100 µM (inactive)
CCCCCCC(=O)O[C@H]1CC[C@H]2[C@@H]3CCC4C/C(=N/NC(=O)c5cccc6c(=O)c7ccccc7[nH]c56)C=C(C)[C@]4(C)[C@H]3CC[C@]12C (some centres undefined)	> 25 µM (inactive)	> 25 µM (inactive)	> 25 µM (inactive)	> 25 µM (inactive)	> 25 µM (inactive)	> 25 µM (inactive)	> 25 µM (inactive)	> 25 µM (inactive)	> 25 µM (inactive)	> 25 µM (inactive)	> 25 µM (inactive)	> 25 µM (inactive)	> 25 µM (inactive)	> 25 µM (inactive)	> 25 µM (inactive)	> 25 µM (inactive)	> 25 µM (inactive)	9.27 µM (inactive)	
COc1ccccc1/N=N/c1c(O)ccc2ccccc12	> 100 µM (inactive) and 82.8 µM (inactive)	71.4 µM (inactive) and 60.8 µM (inactive)	15.8 µM (inactive) and 14.5 µM (inactive)	13.6 µM (inactive) and 18.3 µM (inactive)	45.7 µM (inactive) and > 80.4 µM (inactive)	64.3 µM (inactive)	21.3 µM (inactive)	25.8 µM (inactive) and 30.3 µM (inactive)	18.7 µM (inactive) and 19.6 µM (inactive)	35.6 µM (inactive) and 38.1 µM (inactive)		42.1 µM (inactive) and 35 µM (inactive)	29.9 µM (inactive) and 33.4 µM (inactive)	30.2 µM (inactive) and 28.5 µM (inactive)				51.6 µM (inactive) and > 45.5 µM (inactive)	32.1 µM (inactive) and 23.5 µM (inactive)
Cc1c2c(n3c(nc4ccccc43)c1C#N)SCC2	> 10 µM (inactive)	> 10 µM (inactive)	> 10 µM (inactive)	> 10 µM (inactive)	> 10 µM (inactive)	> 10 µM (inactive)		> 10 µM (inactive)	> 10 µM (inactive)	> 10 µM (inactive)	> 10 µM (inactive)	> 10 µM (inactive)	> 10 µM (inactive)	> 10 µM (inactive)	> 10 µM (inactive)	> 10 µM (inactive)	> 10 µM (inactive)	> 10 µM (inactive)	3.36 µM (inactive)
